{"source": "patent US20140148504A1", "about": "“NOVEL USE OF FLAVONE-BASED COMPOUND” (Industry-Academic Cooperation Foundation, Younsei University, priority 2011, published 2014)", "key": {"[1]": {"test_system": "Collagenase-1 (Matrix Metalloproteinase-1, MMP-1)", "experiment": "Inhibition of UV-induced Collagenase-1 (MMP-1) production in human fibroblasts (ELISA kit)", "type": "cell-based", "conditions": "15 mJ UV, 20 μM flavones, 20 μg/ml ethanol extract, FIG. 11", "procedure": "(§1) Firstly, human fibroblasts were placed in a 96-well microtiter plate (5,000 cells/well) containing DMEM (Dulbecco's Modified Eagle's Media) which comprises 2.5% bovine fetal serum, and cultured until they reached a growth rate of around 90%. Then, the cells were treated for 24 hours in serum-free DMEM containing 20 μM of 5,7-dimethoxyflavone, 20 μM 5,7,4′-trimethoxyflavone, 20 μM 3,5,7,3′,4′-pentamethoxyflavone and 20 μg/ml of the ethanol extract of Kaempferia parviflora of Examples 1-4, respectively, and followed by the exposure to 15 mJ of UV. Subsequently, the cells were additionally treated with serum-free DMEM containing 20 μM of 5,7-dimethoxyflavone, 20 μM 5,7,4′-trimethoxyflavone, 20 μM 3,5,7,3′,4′-pentamethoxyflavone and 20 μg/ml of the ethanol extract of Kaempferia parviflora of Examples 1-4, respectively. After 24 hours, the cell culture was collected and centrifuged to obtain the supernatant.\nFor the resulting supernatant, the degree of Collagenase-1 (MMP-1) production was observed by Collagenase-1 Measurement Kit (QIA55, Merch & Co., USA). Firstly, the above obtained cell culture was placed in a 96-well plate evenly coated with primary antibodies against Collagenase-1 (MMP-1), followed by antigen-antibody reaction for 2 hours at room temperature. After 2 hours, primary antibodies against collagen with fluorescence were added to the said 96-well plate for 1 hour. After 1 hour, a substance inducing color formation was added and left for 30 minutes at room temperature. Then, a termination buffer was added to discontinue the color formation, resulting in the formation of yellow color. The degree of yellow color varied depending on the degree of the said reaction process. Absorbance of the 96-well plate showing yellow color was measured with an absorptiometer at 450 nm."}, "[2]": {"test_system": "Procollagen Type-I C Peptide (PIP)", "experiment": "Enhancing effect on collagen production (Procollagen Type-I C Peptide ELISA) in UV-exposed human fibroblasts", "type": "cell-based", "conditions": "15 mJ UV, 20 μM flavones, 20 μg/ml ethanol extract, PIP in supernatant", "procedure": "as §1, with “supernatant. For the obtained supernatant, the production of Procollagen Type-I C Peptide (PIP), an indicator of collagen production, was quantitatively measured by ELISA kit (MK101, Takara Bio Ink., Japan) so as to observe their effect on collagen production.” for “supernatant.”\nFirstly, antibody-PIP conjugates tagged to peroxidase were added to a 96-well plate evenly coated with mouse monoclonal antibodies against Procollagen. Then, the above obtained cell culture was added and reacted for 3 hours in an incubator, followed by the addition of substrate solution for color formation. Upon staying for 15 minutes at room temperature, the reaction was ended after the addition of reaction termination solution. Absorbance was measured with an absorptiometer at 450 nm."}, "[3]": {"test_system": "hairless mice (Hos: HR-1)", "experiment": "In vivo improvement of UV-induced wrinkles, application onto the skin (skin replicas, Skin Visiometer)", "conditions": "UV-exposed hairless mice; for wrinkle formation (skin replicas) in comparison with UV-treated Group: 50 μL applied onto the back every day for 8 weeks, FIG. 12; for Rt, Rm, Rz and Ra values (degree of wrinkle formation): skin application for 8 weeks, p<0.05, FIGS. 13A-13D", "procedure": "(§2) Forty eight (48) 6-week-old female hairless mice (Hos: HR-1) were accustomed for a week and randomly divided into six (6) groups, eight (8) mice per each group. The hairless mice were exposed to UV for 8 weeks. UV irradiation was carried out 3 times a week, while the amount of UV irradiation was increased from 1 MED (1 MED=50 mJ/cm^2) to 4 MED which was then kept until the end of the test. Test groups were divided into a total of six groups, i.e. Non UV-treated Group, UV-treated Group, UV+5,7-dimethoxyflavone-treated Group, UV+5,7,4′-trimethoxyflavone-treated Group, UV+3,5,7,3′,4′-pentamethoxyflavone-treated Group, and UV+ethanol extract of Kaempferia parviflora-treated Group. Each sample was dissolved in a mixture solvent of ethanol and polyethylene glycol (7:3, v/v), and 50 μL of each sample was applied onto the back of the mice every day for 8 weeks. For the Non UV-treated group and the UV-treated group, 50 μL of a mixture of ethanol and polyethylene glycol (7:3, v/v) was applied. In order to test the preventative effect of wrinkle formation, skin replicas were taken using silicone polymer (SILFLO Impression Material, Flexico, England). The image files of the skin replicas were subjected to wrinkle evaluation using the computer imaging analysis system, i.e. Skin Visiometer SV 600 software (Courage+Khazaha Electronic, Kln, Germany). Rt, Rm, Rz and Ra values (Rt: the distance from the highest and lowest portions on the skin surface, Rm: the maximum Rt value among five (5) measurements, Rz: the mean Rt value of five measurements, Ra: the arithmetic mean value of surface roughness) were determined The results are shown in FIGS. 12 and 13A to 13D."}, "[4]": {"test_system": "hairless mice (Hos: HR-1)", "experiment": "In vivo improvement of UV-induced wrinkles, oral administration (skin replicas, Skin Visiometer)", "conditions": "UV-exposed hairless mice, oral daily for 8 weeks, flavones 50 mg/kg/day, extract 200 mg/kg/day; for wrinkle formation (skin replicas) compared with UV-treated Group: FIG. 14; for Rt, Rm, Rz and Ra values (degree of wrinkle formation): p<0.05, FIGS. 15A-15D", "procedure": "(§3) To the hairless mice exposed to UV in Example 7-1,5,7-dimethoxyflavone (50 mg/kg/day), 5,7,4′-trimethoxyflavone (50 mg/kg/day), 3,5,7,3′,4′-pentamethoxyflavone (50 mg/kg/day) and the ethanol extract of Kaempferia parviflora (200 mg/kg/day) dissolved in 0.5% carboxymethyl cellulose solution containing 5% Tween 80 were orally administered daily for 8 weeks. For the control groups (Non UV-treated Group and UV-treated Group), 0.5% carboxymethyl cellulose solution was administered. In order to test the preventative effect of wrinkle formation, skin replicas were taken using silicone polymer (SILFLO Impression Material, Flexico, England). The image files of the skin replicas were subjected to wrinkle evaluation using the computer imaging analysis system, i.e. Skin Visiometer SV 600 software (Courage+Khazaha Electronic, Kln, Germany)."}, "[5]": {"test_system": "hairless mice (Hos: HR-1)", "experiment": "UV-induced Trans-Epidermal Water Loss (TEWL), application onto the skin (Tewameter)", "type": "in vivo", "conditions": "UV-exposed hairless mice, skin application for 8 weeks; back skin", "procedure": "as §2\nBy using Tewameter (TM 300, Courage+Khazaha Electronic, Kln, Germany), Trans-Epidermal Water Loss (TEWL) was measured on the back of the mice in Example 7-1."}, "[6]": {"test_system": "hairless mice (Hos: HR-1)", "experiment": "UV-induced Trans-Epidermal Water Loss (TEWL), oral administration (Tewameter)", "type": "in vivo", "conditions": "UV-exposed hairless mice, oral daily for 8 weeks; flavones 50 mg/kg/day, extract 200 mg/kg/day", "procedure": "as §3\nBy using Tewameter (TM 300, Courage+Khazaha Electronic, Kln, Germany), Trans-Epidermal Water Loss (TEWL) was measured on the back of the mice in Example 7-2."}, "[7]": {"test_system": "hairless mice (Hos: HR-1)", "experiment": "Skin elasticity, application onto the skin (Cutometer)", "type": "in vivo", "conditions": "UV-exposed hairless mice, skin application for 8 weeks; Non UV-treated Group = 100", "procedure": "as §2\nBy using Cutometer (MPA 580, Courage+Khazaha Electronic, Germany), skin elasticity was measured on the back of the mice in the above Example 7-1 and compared with Non UV-treated Group."}, "[8]": {"test_system": "hairless mice (Hos: HR-1)", "experiment": "Skin elasticity, oral administration (Cutometer)", "type": "in vivo", "conditions": "UV-exposed hairless mice, oral daily for 8 weeks; flavones 50 mg/kg/day, extract 200 mg/kg/day; Non UV-treated Group = 100", "procedure": "as §3\nBy using Cutometer (MPA 580, Courage+Khazaha Electronic, Germany), skin elasticity was measured on the back of the mice in Example 7-2 and compared with Non UV-treated Group."}}, "data": [{"smiles": "COc1cc(OC)c2c(=O)cc(-c3ccccc3)oc2c1", "note": "[5,7-dimethoxyflavone]", "values": [{"measurement": "inhibition of Collagenase-1 (MMP-1) activity induced by UV light", "setting": "[1]", "value": "excellent for inhibiting Collagenase-1 (MMP-1) activity"}, {"measurement": "Content of Collagen", "setting": "[2]", "value": 236.7, "unit": "ng/10^5 cell"}, {"measurement": "wrinkle formation (skin replicas) in comparison with UV-treated Group", "setting": "[3]", "value": "remarkable decrease in wrinkle formation"}, {"measurement": "Rt, Rm, Rz and Ra values (degree of wrinkle formation)", "setting": "[3]", "value": "significantly reduced"}, {"measurement": "wrinkle formation (skin replicas) compared with UV-treated Group", "setting": "[4]", "value": "remarkable decrease in wrinkle formation"}, {"measurement": "Rt, Rm, Rz and Ra values (degree of wrinkle formation)", "setting": "[4]", "value": "significantly reduced"}, {"measurement": "TEWL", "setting": "[5]", "value": 19.4, "unit": "g/m^2/hr"}, {"measurement": "TEWL", "setting": "[6]", "value": 16.4, "unit": "g/m^2/hr"}, {"measurement": "Degree of skin elasticity", "setting": "[7]", "value": 83.5, "unit": "%"}, {"measurement": "Degree of skin elasticity", "setting": "[8]", "value": 77.3, "unit": "%"}]}, {"smiles": "COc1cc(OC)c2c(=O)c(OC)c(-c3ccc(OC)c(OC)c3)oc2c1", "note": "[3,5,7,3′,4′-pentamethoxyflavone]", "values": [{"measurement": "inhibition of Collagenase-1 (MMP-1) activity induced by UV light", "setting": "[1]", "value": "excellent for inhibiting Collagenase-1 (MMP-1) activity"}, {"measurement": "Content of Collagen", "setting": "[2]", "value": 226.5, "unit": "ng/10^5 cell"}, {"measurement": "wrinkle formation (skin replicas) in comparison with UV-treated Group", "setting": "[3]", "value": "remarkable decrease in wrinkle formation"}, {"measurement": "Rt, Rm, Rz and Ra values (degree of wrinkle formation)", "setting": "[3]", "value": "significantly reduced"}, {"measurement": "wrinkle formation (skin replicas) compared with UV-treated Group", "setting": "[4]", "value": "remarkable decrease in wrinkle formation"}, {"measurement": "Rt, Rm, Rz and Ra values (degree of wrinkle formation)", "setting": "[4]", "value": "significantly reduced"}, {"measurement": "TEWL", "setting": "[5]", "value": 22.0, "unit": "g/m^2/hr"}, {"measurement": "TEWL", "setting": "[6]", "value": 20.3, "unit": "g/m^2/hr"}, {"measurement": "Degree of skin elasticity", "setting": "[7]", "value": 72.3, "unit": "%"}, {"measurement": "Degree of skin elasticity", "setting": "[8]", "value": 81.7, "unit": "%"}]}, {"smiles": "COc1ccc(-c2cc(=O)c3c(OC)cc(OC)cc3o2)cc1", "note": "[5,7,4′-trimethoxyflavone]", "values": [{"measurement": "inhibition of Collagenase-1 (MMP-1) activity induced by UV light", "setting": "[1]", "value": "excellent for inhibiting Collagenase-1 (MMP-1) activity"}, {"measurement": "Content of Collagen", "setting": "[2]", "value": 230.0, "unit": "ng/10^5 cell"}, {"measurement": "wrinkle formation (skin replicas) in comparison with UV-treated Group", "setting": "[3]", "value": "remarkable decrease in wrinkle formation"}, {"measurement": "Rt, Rm, Rz and Ra values (degree of wrinkle formation)", "setting": "[3]", "value": "significantly reduced"}, {"measurement": "wrinkle formation (skin replicas) compared with UV-treated Group", "setting": "[4]", "value": "remarkable decrease in wrinkle formation"}, {"measurement": "Rt, Rm, Rz and Ra values (degree of wrinkle formation)", "setting": "[4]", "value": "significantly reduced"}, {"measurement": "TEWL", "setting": "[5]", "value": 24.8, "unit": "g/m^2/hr"}, {"measurement": "TEWL", "setting": "[6]", "value": 19.6, "unit": "g/m^2/hr"}, {"measurement": "Degree of skin elasticity", "setting": "[7]", "value": 76.9, "unit": "%"}, {"measurement": "Degree of skin elasticity", "setting": "[8]", "value": 85.6, "unit": "%"}]}]}
